Data on five compounds can be found in patent EP0094815B1, “Oligopeptide prodrugs” (SMITHKLINE BECKMAN CORPORATION, priority 1982, dated 1983).

Some results are limits rather than exact numbers.

The test system of one data set is C. albicans. In words: Minimum inhibitory concentration, two-fold broth dilution (Method B). Type of data set: cell-based, Candida albicans. The conditions noted are these: C. albicans in Method B; text summary of MIC table (table is an image). As for the experimental part: (§1) The minimum inhibitory concentration of the test compound was determined by two-fold broth dilution tests in yeast carbon base medium, containing 200 pg/ml of sodium glutamate. The compounds were diluted from […] to 0.25 pg/ml and the test medium was inoculated with a suspension of C. albicans grown in the same medium for 15 hours at 37°. The final inoculum sizes in the tests were approximately 10^4 cfu/ml and 10^3 cfu/ml. The tubes were incubated at 37° for 24 and 48 hours and observed for inhibition.
Background: Dilution methods test growth across graded concentrations, often in twofold steps.

Data set [1] concerns representative fungal and bacterial organisms. In words: Biological screen of the utility (antimicrobial) example. Type of data set: cell-based. The conditions noted are these: product of first deblocking, later found not completely deblocked. The method, then: A prototypal compound, L-alanyl-2-(5-fluorouracil-2-yl)-L-glycine, was evaluated against representative fungal and bacterial organisms.
Candida albicans strains B―311 and BC 759, obtained from Smith Kline and French Laboratory Culture Collection were grown in a trypticase soy broth at 28° for 7 hours. The seeded plates, with this medium containing 1.5% agar, were prepared by inoculating 1 ml of the inoculum in 1 I of yeast-carbon base medium, containing 200 µg/ml of lysine or glutamate as a sole source of nitrogen.
as §1
A method similar to A above but using E. coli was used which employs a M-9 medium (basic salts with ammonium ion as the nitrogen source and glucose as the carbon source).

The nature of data set [2]: Stability of a-substituted glycine peptides in aqueous buffer (Ellman colorimetric assay). Type of data set: physicochemical. Conditions: for half-life: 0.2 M phosphate buffer (pH 7.0), no enzyme, read-out: stable (t). For orientation: Ellman's reagent forms a yellow product with free thiols.
The subject of another data set is Leucine Aminopeptidase. In words: Enzyme catalyzed warhead release (Ellman colorimetric assay). Type of data set: biochemical, hog. Conditions: pH 7.0; linear rate over the observation period (5 min). The method, then: In each case upon addition of the enzyme, Leucine Aminopeptidase, the warhead was released. The release was maintained at a linear rate over the observation period (5 min). […] These observations are consistent with literature reports of the optimal pH necessary for the efficacy of this enzyme. These observations were obtained by colorimetric assay, which involves the reaction between a free sulfhydryl group and 5,5'-dithio-bis(2-nitrobenzoic acid), the Ellman reagent, to produce a yellow color as follows: [drawing 44] The peptide from Example 4 was dissolved in 4 mM of phosphate buffer solution (pH 7) containing the Ellman reagent at a level of 4 mg/ml to produce a 1 mM solution of the peptide. The resulting mixture was monitored using a spectrophotometer at a wavelength of 412 nm. To 1 ml of this solution was added 100 µg of hog kidney leucine aminopeptidase (Sigma) and the enzymatic hydrolysis was continuously monitored at 412 nm.

For the compound `C[C@H](N)C(=O)NC(C(=O)O)n1cc(F)c(=O)[nH]c1=O` (stereo partly drawn) [L-L, L-alanyl-2-(5-fluorouracil-2-yl)-L-glycine], the antifungal activity entry with C. albicans is recorded as “antifungal activity”.

Consider `C[C@H](N)C(=O)NC(NNS(=O)(=O)c1cc(C(=O)O)cc(C(=O)O)c1)C(=O)O` (stereo partly drawn) [Example 12, L-alanyl-2-(3,5-dicarboxy-phenylsulfohydrazino)-D,L-glycine], for which the “activity in the biological screen” value in data set [1] is given as “not active”.

Take `C[C@H](N)C(=O)NC(Sc1ccccc1)C(=O)O` (stereo partly drawn) [Example 13, L-alanyl-2-(thiophenyl)-D,L-glycine]: in data set [2], the half-life was > 83.3 h.

With `C[C@H](N)C(=O)NC(C(=O)O)n1cc(F)c(=O)[nH]c1=O` (mixture of isomers) [L-, DL, L-alanyl-2-(5-fluorouracil-1-yl)-D,L-glycine], in the data set on C. albicans, the antifungal activity entry is “antifungal activity”.

Consider `C[C@H](N)C(=O)NC(SCCNc1cc(C(=O)O)nc(C(=O)O)c1)C(=O)O` (stereo partly shown) [Example 4], for which the half-life in data set [2] was > 83.3 h. Also, in data set [2] (pH 7.5), the non-enzymatic warhead release entry is “no noticeable increases”. Also, the “warhead release upon addition of the enzyme” value in the data set on Leucine Aminopeptidase was “released”.
